Several values for one entry are separate records, joined by “and”; a condition that tells them apart may be missing. Equal values may be shown once. Entries after “also recorded” stand apart in the source; their conditions may differ.
Tests used:
Type in all cases: in vivo
[1] = test system: mouse colon cancer cells MC38-hPDL1; test: Combined use of Cisplatin with Keytruda or Tecentriq (Example 11), MC38-hPDL1 tumors in B-hPD-1 mice; settings: for Tumor volume Day 8: Day 8, group division, Cisplatin 10 mg/kg intravenous once, Keytruda 0.1 mg/kg i.p. once per 3 days x6, Tecentriq 1 mg/kg i.p. once per 2 days x8; for Tumor volume Day 18 / Tumor volume Day 25: doses as Table 9 (Cisplatin 10, Keytruda 0.1, Tecentriq 1 mg/kg); for Tumor volume Day 25: Day 25, end-point; for Tumor free situation: end-point; for weight change compared among groups: mouse, in vivo
Procedure: B-hPD-1 homozygous mice (4-6 weeks old) were taken, 5×10^5 mouse colon cancer cells MC38-hPDL1 were subcutaneously inoculated at right side (the same as Example 10). When the tumor volume was about 100 mm^3, the mice were randomly divided into 6 control groups or treatment groups (n=7/group). For the treatment group, one or two of the above 3 drugs were randomly injected, the dosages were 0.1-10 mg/kg, and a blank solvent was injected for the control group. The tumor volume was measured and the mice were weighed twice a week. Moreover, euthanasia was performed when the tumor volume of a single mouse reached 3000 mm^3.

[2] = test system: mouse colon cancer cells MC38; test: Keytruda antibody efficacy at different dosages (Example 10, Experiment 2), MC38 tumors in B-hPD-1 mice; settings: for Tumor volume Day 8: once per 3 days x6, Day 8, group division; for Tumor volume Day 32: Day 32, end-point; for Survival situation / Tumor free situation: end-point
Procedure: (§1) B-hPD-1 homozygous mice (4-6 weeks old) were taken, mouse colon cancer cells MC38 or modified MC38-hPDL1 (i.e., PD-L1 gene humanized MC38 cells) were subcutaneously inoculated. When the tumor volume was about 100 mm^3, the mice were randomly divided into a control group or a treatment group. For the treatment group, one of the above 2 antibodies was randomly selected and administered at different dosages (0.3-25 mg/kg), and the same volume of a blank solvent was injected for the control group. The tumor volume was measured twice a week and the body weight were measured for each mouse. Moreover, euthanasia was performed when the tumor volume of a single mouse reached 3000 mm^3. The specific experiment scheme was as follows:
(§2) Experiment 2 Keytruda antibody efficacy experiments at different dosages: after subcutaneous inoculation of MC38 cells to mice (5×10^5/100 μL PBS), the anti-human PD-1 antibody Keytruda was administered to the treatment group (n=6/group) through intraperitoneal injection at different dosages (0.3-10 mg/kg), and the same volume of a blank solvent was injected for the control group (n=10/group); the administration frequency was one administration per 3 days for a total of 6 administrations;

[3] = test system: mouse colon cancer cells MC38; test: Keytruda antibody efficacy pre-experiment (Example 10, Experiment 1), MC38 tumors in B-hPD-1 mice
Procedure: as §1
as §2, with “1” for “2”, “pre-experiment (n=6/group):” for “experiments at different dosages:”, “at 25 mg/kg” for “(n=6/group)”, “injection,” for “injection at different dosages (0.3-10 mg/kg),”, “group;” for “group (n=10/group);”

[4] = test system: modified mouse colon cancer cells MC38-hPDL1; test: Tecentriq antibody efficacy pre-experiment (Example 10, Experiment 3), MC38-hPDL1 tumors in B-hPD-1 mice
Procedure: as §1
Experiment 3 Tecentriq antibody efficacy pre-experiment (n=7/group): subcutaneous inoculation of MC38-PDL1 (5×10^5/100 μL PBS), the […] Tecentriq was administered to the treatment group at 3 mg/kg through intraperitoneal injection, and the same volume of a blank solvent was injected for the control group; the administration frequency was one administration per week for a total of 2 weeks;

[5] = test system: modified mouse colon cancer cells MC38-hPDL1; test: Tecentriq antibody efficacy at different dosages (Example 10, Experiment 4), MC38-hPDL1 tumors in B-hPD-1 mice; settings: for Tumor volume Day 8: once per 2 days x8, Day 8, group division; for Tumor volume Day 33: Day 33, end-point; for Survival situation / Tumor free situation: end-point
Procedure: as §1
Experiment 4 Tecentriq antibody efficacy experiments at different dosages (n=5/group): subcutaneous inoculation of MC38-PDL1 (2×10^5/100 μL PBS), the […] Tecentriq was administered to the treatment group through intraperitoneal injection at 1-10 mg/kg, and the same volume of a blank solvent was injected for the control group; the administration frequency was one administration per 2 days for a total of 8 administrations;

[6] = test system: mouse colon cancer cells MC38-hPDL1; test: Screening anti-human PD-L1 antibodies (Example 12, Experiment 1), MC38-hPDL1 tumors in B-hPD-1 mice
Procedure: Experiment 1: B-hPD-1 homozygous mice (4-6 weeks old) were taken, 5×10^5 mouse colon cancer cells MC38-hPDL1 were subcutaneously inoculated at right side (the same as Example 10). When the tumor volume was about 100 mm^3, the mice were randomly divided into the control group or treatment groups (n=5/group). For the treatment group, the positive control Tecentriq or one of two anti-human PD-L1 antibodies was randomly selected, all dosages were 3 mg/kg, and a blank solvent was injected for the control group. The administration manner was intraperitoneal injection, once per 2 days for a total of 8 times. The tumor volume was measured twice a week. Moreover, euthanasia was performed when the tumor volume of a single mouse reached 3000 mm^3.

With `N.N.[Cl][Pt][Cl]` [Cisplatin] the “Tumor volume Day 8” value [1] was 98 ± 24 mm^3, the “Tumor volume Day 18” value [1] was 401 ± 249 mm^3 and the “Tumor volume Day 25” value [1] was 612±510 mm^3. The TGITV % ([1]; doses as Table 9) was 68.2%, the “tumor volume compared with control or single-drug groups” value ([1]; doses as Table 9, in words) was “has certain tumor inhibitory effect” and the Tumor free situation ([1]; doses as Table 9) was 0/5. The “weight change compared among groups” value [1] was “no significant difference in average weight increase” and the mice died ([1]; n=7/group, by experiment end-point) was 2.

For “Keytruda: humanized monoclonal antibody from Merck & Co.; human PD-1 antibody”, the TGITV % ([2]; 0.3 mg/kg) was 78.2%, the “Tumor volume Day 8” value ([2]; 0.3 mg/kg i.p.) was 113 ± 28 mm^3 and the “Tumor volume Day 22” value ([2]; 0.3 mg/kg) was 115 ± 116 mm^3. The “Tumor volume Day 32” value ([2]; 0.3 mg/kg) was 437±515 mm^3, the Survival situation ([2]; 0.3 mg/kg) was 6/6 and the Tumor free situation ([2]; 0.3 mg/kg) was 1/6. The TGITV % ([2]; 1 mg/kg) was 94.0%, the “Tumor volume Day 8” value ([2]; 1 mg/kg i.p.) was 112 ± 27 mm^3 and the “Tumor volume Day 22” value ([2]; 1 mg/kg) was 89 ± 86 mm^3. For the same compound, the “Tumor volume Day 32” value ([2]; 1 mg/kg) was 201±186 mm^3, the Survival situation ([2]; 1 mg/kg) was 6/6 and the Tumor free situation ([2]; 1 mg/kg) was 2/6. For the same compound, the TGITV % ([2]; 3 mg/kg) was 89.0%, the “Tumor volume Day 8” value ([2]; 3 mg/kg i.p.) was 113 ± 25 mm^3 and the “Tumor volume Day 22” value ([2]; 3 mg/kg) was 88 ± 94 mm^3. For the same compound, the “Tumor volume Day 32” value ([2]; 3 mg/kg) was 277±397 mm^3, the Survival situation ([2]; 3 mg/kg) was 6/6 and the Tumor free situation ([2]; 3 mg/kg) was 2/6. For the same compound, the TGITV % ([2]; 10 mg/kg) was 92.4%, the “Tumor volume Day 8” value ([2]; 10 mg/kg i.p.) was 110 ± 28 mm^3 and the “Tumor volume Day 22” value ([2]; 10 mg/kg) was 117 ± 111 mm^3. The “Tumor volume Day 32” value ([2]; 10 mg/kg) was 223±270 mm^3, the Survival situation ([2]; 10 mg/kg) was 6/6 and the Tumor free situation ([2]; 10 mg/kg) was 2/6. The “average tumor volume compared with control group” value ([2]; 0.3, 1, 3 and 10 mg/kg, in words) was “tumor volume obviously smaller than that of the control group; also recorded: obviously smaller than that of the G1 control group”, the “Tumor volume Day 8” value [1] was 98 ± 30 mm^3 and the “Tumor volume Day 18” value [1] was 606 ± 247 mm^3. For the same compound, the “Tumor volume Day 25” value [1] was 1267±619 mm^3, the TGITV % ([1]; doses as Table 9) was 27.7% and the Tumor free situation ([1]; doses as Table 9) was 0/7. For the same compound, the “weight change compared among groups” value [1] was “no significant difference in average weight increase”, the “Tumor volume Day 6” value ([3]; 25 mg/kg intraperitoneal, once per 3 days, 6 administrations, Day 6, group division) was 169 ± 24 mm3 and the “Tumor volume Day 18” value ([3]; 25 mg/kg intraperitoneal, once per 3 days, 6 administrations, Day 18) was 302 ± 86 mm3. For the same compound, the “Tumor volume Day 26” value ([3]; 25 mg/kg intraperitoneal, once per 3 days, 6 administrations, Day 26, end-point) was 111±77 mm3, the TGITV % ([3]; 25 mg/kg, Tumor Growth Inhibition Value) was 102% and the Survival situation ([3]; 25 mg/kg, end-point Day 26) was 100%. For the same compound, the Tumor free situation ([3]; 25 mg/kg, end-point Day 26, tumor-free mice/mice) was 2 of the 6 and 2/6, the “average tumor volume compared with control group” value ([3]; 25 mg/kg, in words) was “tumor volume obviously smaller than that of the control group; also recorded: obviously smaller than that of the G1 control group” and the “toxicity on the animals” value ([3]; 25 mg/kg, in words) was “does not have obvious toxicity on the animals”.

With “Tecentriq: fully humanized monoclonal antibody from Genentech under Roche; human PD-L1 antibody” the TGITV % ([4]; 3 mg/kg) was 79.7%, the “Tumor volume Day 6” value ([4]; 3 mg/kg intraperitoneal, once per week, 2 weeks, Day 6, group division) was 88 ± 8 mm3 and the “Tumor volume Day 17” value ([4]; 3 mg/kg, Day 17) was 208 ± 72 mm3. The “Tumor volume Day 20” value ([4]; 3 mg/kg, Day 20, end-point) was 237±89 mm3, the Survival situation ([4]; 3 mg/kg, end-point) was 7/7 and the Tumor free situation ([4]; 3 mg/kg, end-point) was “no mouse cured in the treatment group and 0/7”. The “average tumor volume compared with control group” value ([4]; 3 mg/kg, in words) was “tumor volume obviously smaller than that of the control group”, the “toxicity on the animals” value ([4]; 3 mg/kg, in words) was “does not have obvious toxicity on the animals” and the TGITV % ([5]; 1 mg/kg) was 61.2%. For the same compound, the “Tumor volume Day 8” value ([5]; 1 mg/kg i.p.) was 144 ± 31 mm^3, the “Tumor volume Day 22” value ([5]; 1 mg/kg) was 506 ± 289 mm^3 and the “Tumor volume Day 33” value ([5]; 1 mg/kg) was 1044±432 mm^3. For the same compound, the Survival situation ([5]; 1 mg/kg) was 5/5, the Tumor free situation ([5]; 1 mg/kg) was 0/5 and the TGITV % ([5]; 3 mg/kg) was 93.7%. The “Tumor volume Day 8” value ([5]; 3 mg/kg i.p.) was 147 ± 38 mm^3, the “Tumor volume Day 22” value ([5]; 3 mg/kg) was 418 ± 268 mm^3 and the “Tumor volume Day 33” value ([5]; 3 mg/kg) was 1028±963 mm^3. For the same compound, the Survival situation ([5]; 3 mg/kg) was 5/5, the Tumor free situation ([5]; 3 mg/kg) was 0/5 and the TGITV % ([5]; 10 mg/kg) was 97.2%. The “Tumor volume Day 8” value ([5]; 10 mg/kg i.p.) was 153 ± 62 mm^3, the “Tumor volume Day 22” value ([5]; 10 mg/kg) was 68 ± 75 mm^3 and the “Tumor volume Day 33” value ([5]; 10 mg/kg) was 219±326 mm^3. For the same compound, the Survival situation ([5]; 10 mg/kg) was 5/5, the Tumor free situation ([5]; 10 mg/kg) was 3/5 and the “average tumor volume compared with control group” value ([5]; 1-10 mg/kg, in words) was “tumor volume obviously smaller than that of the control group; also recorded: obviously smaller than that of the G1 control group”. The “Tumor volume Day 8” value [1] was 98 ± 26 mm^3, the “Tumor volume Day 18” value [1] was 688 ± 409 mm^3 and the “Tumor volume Day 25” value [1] was 1234±977 mm^3. The TGITV % ([1]; doses as Table 9) was 29.8%, the Tumor free situation ([1]; doses as Table 9) was 0/7 and the “weight change compared among groups” value [1] was “no significant difference in average weight increase”. The TGITV % ([6]; 3 mg/kg) was 112.2%, the “Tumor volume Day 10” value ([6]; 3 mg/kg i.p., once per 2 days x8, Day 10, group division) was 111 ± 25 mm^3 and the “tumor volume / therapeutic effect compared with control and Tecentriq” value ([6]; 3 mg/kg, same dosage and frequency, in words) was “significant difference in the volume of tumors between G2 or G3 and the control group (G1)”. The “Tumor volume Day 20” value ([6]; 3 mg/kg, Day 20) was 60 ± 70 mm^3, the “Tumor volume Day 27” value ([6]; 3 mg/kg, Day 27, end-point) was 75±113 mm^3 and the Survival situation ([6]; 3 mg/kg, end-point) was 5/5. For the same compound, the Tumor free situation ([6]; 3 mg/kg, end-point) was 0/5 and the “animal weight / tolerance compared with control group” value ([6]; 3 mg/kg, in words) was “no significant difference in average weight increase”.
